One series can be described thus: in vivo. The note with it: mouse, po. Here is the method: Five days after administration of the substance, the number of surviving animals was determined. […] The LD50 values were in each case based on the free base.
The conditions of series [1]: in vivo; cited from earlier work.

Bounds are passed on as bounds.

Data on seven compounds can be found in patent US3960949A, “1,2-Biguanides” (Schering Aktiengesellschaft, priority 1971, dated 1976).

Broadly, the LD50 is the dose at which mortality reaches 50%. Read a low LD50 as greater toxicity. In the series “in vivo”, `CCN=C(NC(=N)N)N(CC)CC.O=[N+]([O-])O` [1,1,2-Triethylbiguanide, 1,1,2-Triethylbiguanide Nitrate] gave an LD50 at 120 h of over 2000 mg/kg. The same measure, in the same setting: then `Br.CC(C)N=C(NC(=N)N)NC(C)C` [1,2-Diisopropylbiguanide, 1,2-Diisopropylbiguanide Hydrobromide], with over 2000 mg/kg. As for `CCCCNC(=N)NC(=N)N` [1-Butylbiguanide, 1-butylbiguanide], in series [1], the gastrointestinal compatibility entry is on record as “gastrointestinal incompatibility”. Compound `CCCCN/C(=N\CC)NC(=N)N` [1-Ethyl-2-n-butylbiguanide] came in with a 50% lethal dose (LD50) at 120 h in the series “in vivo” of over 2000 mg/kg.

For the compound `CCCN=C(NC)NC(=N)N.Cl` [1-Methyl-2-n-propylbiguanide, 1-Methyl-2-n-propylbiguanide Hydrochloride], the LD50 at 120 h in the series “in vivo” was over 2000 mg/kg.

Compound `CN/C(=N\CCc1ccccc1)NC(=N)N` [1-Methyl-2-β-phenethylbiguanide, 2-Methyl-1-β-phenethylbiguanide Nitrate] displayed a 50% lethal dose (LD50) at 120 h in the series “in vivo” of 2830 mg/kg. On to `[H]/N=C(/N)N/C(=N/[H])NCCc1ccccc1` [Phenformin, 1-β-phenethylbiguanide], for which, in series [1], the gastrointestinal compatibility result was “gastrointestinal incompatibility”.
